What was measured:
[1] = UV-Vis absorption and fluorescence spectroscopy of the Oxazine library; format: physicochemical; conditions: for Extinction coefficient: Beer's Law plots; for Quantum yield: relative, references Oxazine 1, Oxazine 170, Rhodamine 101
How it was run: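 Absorbance measured at room temperature in 1-cm quartz cuvette, reference corrected; extinction coefficient from Beer's Law plots of absorbance vs concentration. Fluorescence spectra corrected for PMT response; relative quantum yields averaged over multiple measurements against Oxazine 1, Oxazine 170 and Rhodamine 101 references.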

[2] = test system: murine brachial plexus and sciatic nerves; assay: Nerve-specificity screening using direct/topical administration; format: in vivo, mouse; conditions: for nerve specificity (N/M contrast vs control group) via direct administration: 125 μM, imaged 30 minutes after staining; for N/M and N/A ratios vs unstained control animals: direct administration
Experimental: All reagents were purchased from Sigma Aldrich, Fisher Scientific, TCI, or Ark Pharm. Unless otherwise indicated, all commercially available starting materials were used directly without further purification. Analytical thin layer chromatography (TLC) was performed on Millipore ready-to-use plates with silica gel 60 (F254, 32-63 μm). Flash chromatography was performed on Sorbent Technologies silica gel for column chromatography or on a Biotage Isolera Flash System using SNAP Ultra cartridges. High-resolution mass spectra (HRMS) were measured on a ThermoElectron LTQ-Orbitrap high resolution mass spectrometer with a dedicated Accela HPLC system, or an Agilent 6244 time-of-flight LCMS with diode array detector VL+. LCMS and Purity Characterization Mass-to-charge ratio and purity of the Oxazine compounds were characterized on an Agilent 6244 time-of-flight tandem liquid chromatography mass spectroscopy (LCMS) with diode array detector VL+. Sample (10 μL) was injected into a C18 column (Poroshell 120, 4.6×50 mm, 2.7 micron), and eluted with a solvent system of A (H2O, 0.1% FA) and B (MeCN, 01.% FA) at 0.4 mL/min, from A/B=90/10 to 5/95 over 10 min, maintained at A/B=5/95 for additional 5 min. Ions were detected in positive ion mode by setting the capillary voltage at 4 kV and gas temperature at 350° C. Purity was calculated through area under the curve analysis of the absorbance at 254 nm. UV-Vis Absorption and Fluorescence Spectroscopy. UV-Vis spectra were collected with a Cary 50 UV-Vis spectrophotometer at room temperature, using a 1-cm quartz cuvette. Fluorescence spectra were collected on a Cary Eclipse fluorescence spectrophotometer (Agilent Technologies). All absorbance spectra were reference corrected. Extinction coefficient was calculated from Beer's Law plots of absorbance versus concentration. Fluorescence spectra were corrected for the wavelength dependent response of the R928 photomultiplier tube using a manufacturer generated correction file. Relative quantum yields are reported as the average of multiple measurements using multiple references, including Oxazine 1, Oxazine 170, and Rhodamine 101. Physicochemical Property Calculation. Physicochemical partition coefficients (Log D) values at pH 7.4, number of hydrogen bond donors and acceptors, polar surface area, and the number of rotatable bonds were calculated using Marvin and JChem calculator plugins (ChemAxon, Budapest, Hungary). Nerve-Specificity Screening using Direct/Topical Administration Each compound was screened for its tissue-specificity using a previously published direct/topical administration strategy in murine brachial plexus and sciatic nerves.^1 Each compound from the Oxazine library was formulated in the previously utilized co-solvent formulation (10% DMSO, 5% Kolliphor, 65% serum and 20% phosphate buffered saline) at 125 μM. 100 μL of the formulated Oxazine were incubated on the exposed brachial plexus or sciatic nerve for 5 minutes. The fluorophore containing solution was removed and the area was irrigated with saline 18 times to remove any unbound fluorophore. Co-registered fluorescence and color images were collected of each stained area 30 minutes after Oxazine direct/topical administration using a custom built macroscopic imaging system with 620/60 nm excitation and 700/75 nm bandpass emission filters. Custom written MatLab code was used to analyze the tissue specific fluorescence where regions of interest were selected on the nerve, muscle and adipose tissue using the white light images. These regions of interest were then analyzed on the co-registered matched fluorescence images permitting assessment of the nerve to muscle and nerve to adipose ratios in blinded manner. […]

[3] = test system: murine brachial plexus and sciatic nerves; assay: Nerve-specificity screening using systemic administration; format: in vivo; conditions: for nerve specificity / nerve contrast (N/M vs control group) following systemic administration: IV, 200 nmol, 4 hours prior to imaging; for N/M and N/A ratios vs unstained control animals: systemic administration
[4] = test system: mouse brachial plexus nerves; assay: Nerve imaging at depth under muscle tissue; format: in vivo
Experimental: Nerve imaging at depth studies using a model Oxazine derivative. Oxazine 4 and LGW01-08 were used to stain mouse brachial plexus nerves using both direct and systemic administration methods using the same dose and administration methods previously described. The ability to image the brachial plexus nerve at depth was assessed under varying thicknesses of mouse muscle tissue. Muscle tissue was resected from the peritoneal muscle layer and measured for thickness. One and two layers of resected peritoneal muscle tissue was placed over the stained nerves, providing one and two mm thick homogenous tissue through which the stained nerve tissue was imaged. The same muscle tissue was used to cover the stained nerves from both fluorophores with care taken to orient the muscle in the same way to ensure equivalent comparison. The imaging system configuration was changed to reflect the 700 nm channel in clinically relevant FGS systems (Tummers et al., Eur J Surg Oncol 40, 850-858 (2014); Troyan et al., Ann Surg Oncol 16, 2943-2952 (2009); Ashitate et al., The Journal of surgical research 176, 7-13 (2012); Verbeek et al., The Journal of urology 190, 574-579 (2013); Hillary et al., Langenbecks Arch Surg 403, 111-118 (2018); and Mery et al., Oncotarget 8, 109559-109574 (2017). For fluorescence excitation, the PhotoFluor II was filtered with a 650±22.5 nm bandpass excitation filter. The resulting fluorescence was collected with a 720±30 nm bandpass emission filter for image collection. Camera exposure times ranged from 0.025-4 s for fluorescence image collection.
Image analysis of intraoperative nerve contrast. Custom written MatLab code was used to analyze the tissue specific fluorescence where regions of interest (ROIs) were selected on the nerve, muscle and adipose tissue using the white light images, but blinded to the fluorescence images. These ROIs were then analyzed on the co-registered, matched fluorescence images permitting assessment of the mean tissue intensities as well as the nerve to muscle (N/M) and nerve to adipose (N/A) ratios. Fluorescence intensity measurements were divided by the exposure time to obtain normalized intensity per second measurements. Mean nerve to background tissue ratios (N/M and N/A) were calculated for each Oxazine derivative. For nerve imaging at depth image analysis, fluorescent line profiles and 3-D intensity topographical plots were generated in ImageJ using the plot profile and surface plot functions, respectively. The line profiles were background and exposure time corrected by dividing by the exposure time of each image and subtracting the average intensity of background pixels from the entire line profile. […]

swine peripheral nerves = assay: Swine nerve imaging on da Vinci Si surgical system; format: in vivo; conditions: for nerve contrast against key surgical tissue classes (adipose, muscle, vasculature, peritoneal): laparoscopic; for SBR of buried nerve tissues: underlying peritoneal tissue and several millimeters of mixed adipose and muscle tissues, semi-quantitative
Description: A custom-built laparoscopic imaging system also capable of real-time color and fluorescence imaging was used to acquire in vivo swine images and videos. The imaging system was integrated into the da Vinci Si surgical system (Intuitive Surgical, Sunnyvale, Calif.) and consisted of a Necsel Neon 5 W 640 nm laser (Necsel, Milpitas, Calif.) coupled to the da Vinci Si endoscope with a 642 nm StopLine single-notch blocking filter (Semrock, Rochester, N.Y.). The single-notch blocking filter was placed in the Si camera sterile adaptor between the rod lens endoscope and the Si camera head. Fluorescent signal acquisition occurred in the Si white light mode with the blocking filter removing the excitation light and the fluorescent signal detected primarily on the red, green, blue (RGB) red-Bayer elements of a modified Si endoscope camera head. Laser power at the endoscope tip measured 800 mW with the optical power loses occurring primarily at the laser fiber/light guide and the Si camera head/rod lens interfaces. Fluorescence and color videos were captured using the Si Vision side cart at an exposure time of 2 ms. Videos were recorded on a Panasonic HD-SDI recorder connected to the TilePro video out connections on the da Vinci Si Vision side cart. Video clips were edited in iMovie to crop their length and include text overlays. Screen captures of the in vivo video clips were collected and are presented as figures. Da Vinci Si imaging display algorithms apply non-linear gamma and color corrections to the collected video, and thus, while image quantification is possible to report what would be visible to surgeons intraoperatively, these values are only semi-quantitative and could vary from what is observed in a more controlled system.
Swine nerve imaging studies of Oxazine derivatives. LGW01-08 and LGW05-75 were administered via IV injection at a body surface area scaled dose from mice for swine nerve imaging studies (0.34 mg/kg) (Nair & Jacob, J Basic Clin Pharm 7, 27-31 (2016) and Sharma & McNeill, Br J Pharmacol 157, 907-921 (2009)). Nerves running along the body wall in the peritoneal cavity buried beneath 1-3 mm of fascia and adipose tissue were imaged using the previously described fluorescence enabled laparoscopic imaging system docked to the da Vinci Si Surgical System. Nerve contrast was monitored immediately following injection and up to 6 hours after systemic administration. Dissection and resection of the identified nerve structures was performed using the da Vinci system, where the resected tissues were fixed in formalin. The fixed tissues were sent to the OHSU Histopathology Shared Resource for paraffin embedding, sectioning and subsequent gold standard H&E staining.
Image analysis of intraoperative nerve contrast. Custom written MatLab code was used to analyze the tissue specific fluorescence where regions of interest (ROIs) were selected on the nerve, muscle and adipose tissue using the white light images, but blinded to the fluorescence images. These ROIs were then analyzed on the co-registered, matched fluorescence images permitting assessment of the mean tissue intensities as well as the nerve to muscle (N/M) and nerve to adipose (N/A) ratios. Fluorescence intensity measurements were divided by the exposure time to obtain normalized intensity per second measurements. Mean nerve to background tissue ratios (N/M and N/A) were calculated for each Oxazine derivative. For nerve imaging at depth image analysis, fluorescent line profiles and 3-D intensity topographical plots were generated in ImageJ using the plot profile and surface plot functions, respectively. The line profiles were background and exposure time corrected by dividing by the exposure time of each image and subtracting the average intensity of background pixels from the entire line profile. […] In addition, non-uniform tissue surfaces, variable endoscope-tissue positioning, and vignetting add further complications to resolving tissue-level SBRs.

nerve and muscle tissue = assay: Ex vivo tissue staining nerve-specificity screening
Description: Oxazine derivative library nerve-specificity screening. All 64 Oxazine derivatives were screened for nerve specificity using a previously described ex vivo tissue staining assay (Gibbs, S. L., et al., PloS one 8, e73493 (2013)). Ex vivo nerve and muscle tissue fluorescence intensities varied, with many compounds showing minimal nerve or muscle tissue fluorescence above control autofluorescence following Oxazine derivative staining. […] All Oxazine derivatives were further screened for nerve-specificity in vivo using both direct and systemic administration strategies. The direct administration strategy enabled quantification of nerve-specificity and contrast following fluorophore contact with the nerves and surrounding tissues without the requirement of BNB penetration, providing the most similar comparison to ex vivo nerve-specificity screening. The systemic administration screening studies required not only nerve specificity, but also adequate biodistribution and BNB penetration to generate SBR for visualization.

Row | SMILES | Max Abs [1] [nm] | Max Em [1] [nm] | Max Ex [1] [nm] | Extinction coefficient [1] [M⁻¹ cm⁻¹] | Quantum yield [1] [%] | nerve specificity (N/M contrast vs control group) via direct administration [2] | N/M and N/A ratios vs unstained control animals [2] | nerve specificity / nerve contrast (N/M vs control group) following systemic administration [3] | N/M and N/A ratios vs unstained control animals [3] | width of smallest nerve branches distinguished under muscle tissue ([4]; direct administration, under 1 mm of muscle tissue) [μm] | thickness of muscle tissue under which nerve tissue could be identified ([4]; following both systemic and direct administration, 700 nm channel filters) | time post-injection at which signal approached background levels (swine peripheral nerves; swine, IV 0.34 mg/kg) [h] | nerve contrast against key surgical tissue classes (adipose, muscle, vasculature, peritoneal) (swine peripheral nerves; swine) | SBR of buried nerve tissues (swine peripheral nerves; swine) | faster time to positive N/A and N/M fluorescence compared to current visible-emissive agents (swine peripheral nerves; systemic administration) | time post-injection to nerve signal / strong nerve contrast (swine peripheral nerves; systemic administration) [min] | ex vivo nerve specificity (N/M SBR vs unstained control group) (nerve and muscle tissue) | time after administration with strong nerve SBR (swine peripheral nerves; swine, IV 0.34 mg/kg) [h] | time required for sufficient background tissue clearance (swine peripheral nerves; swine, IV 0.34 mg/kg) [h]
1 | CCNc1cc2oc3cc(=[N+](CC)CC)ccc-3nc2cc1C [LGW01-08, N-ethyl-N-(7-(ethylamino)-8-methyl-3H-phenoxazin-3-ylidene)ethanaminium] | 638 | 659 | 640 | 78650 | 5.68 | high nerve specificity | significantly higher N/M and N/A ratios than unstained control animals | high nerve specificity | significantly higher N/M and N/A ratios than unstained control animals | ~200 | up to 2 mm | ~4 | positive nerve contrast | ~1.5 | 2-6 fold | 20 | – | – | –
2 | CN(C)c1ccc2nc3ccc(=[N+](C)C)cc-3oc2c1 [LGW01-39, N-(7-(dimethylamino)-3H-phenoxazin-3-ylidene)-N-methylmethanaminium] | 648 | 667 | 650 | 76144 | 9.56 | – | – | – | – | – | – | – | – | – | – | – | significantly higher N/M SBR compared to the unstained control group | – | –
3 | CC/N=c1/cc2oc3cc4c(cc3nc-2cc1C)C(C)=CC(C)(C)N4 [LGW01-44, (Z)—N-(2,2,4,8-tetramethyl-1,2-dihydro-9H-pyrido[3,2-b]phenoxazin-9-ylidene)ethanaminium] | 648 | 664 | 650 | 40124 | 21.63 | positive nerve specificity | – | negative for nerve contrast | – | – | – | – | – | – | – | – | significantly higher N/M SBR compared to the unstained control group | – | –
4 | CC/N=c1/cc2oc3cc4c(cc3nc-2cc1C)OCCN4CC [LGW05-75, (Z)—N-(4-ethyl-9-methyl-3,4-dihydro-[1,4]oxazino[2,3-b]phenoxazin-8(2H)-ylidene)ethanaminium] | 638 | 659 | 640 | 57360 | 31.70 | high nerve specificity | significantly higher N/M and N/A ratios than unstained control animals | high nerve specificity | significantly higher N/M and N/A ratios than unstained control animals | – | – | – | positive nerve contrast | ~1.5 | – | – | – | > 4.5 | ~1.5

Reference: US11492359B2, “Near-infrared nerve-sparing fluorophores” (OREGON HEALTH & SCIENCE UNIVERSITY, priority 2018, dated 2022)
